The target of assay [1] is T1, Corticotropin-releasing factor receptor 2 (Mus musculus, UniProt Q60748). The assay can be described thus: Antagonistic activity against [125I]-Tyr-ovine CRF binding to Corticotropin releasing factor receptor 2 beta.
Assay [2] addresses T2, Corticotropin-releasing factor receptor 1 (Rattus norvegicus, UniProt P35353).
T2 sequence (P35353 whole entry): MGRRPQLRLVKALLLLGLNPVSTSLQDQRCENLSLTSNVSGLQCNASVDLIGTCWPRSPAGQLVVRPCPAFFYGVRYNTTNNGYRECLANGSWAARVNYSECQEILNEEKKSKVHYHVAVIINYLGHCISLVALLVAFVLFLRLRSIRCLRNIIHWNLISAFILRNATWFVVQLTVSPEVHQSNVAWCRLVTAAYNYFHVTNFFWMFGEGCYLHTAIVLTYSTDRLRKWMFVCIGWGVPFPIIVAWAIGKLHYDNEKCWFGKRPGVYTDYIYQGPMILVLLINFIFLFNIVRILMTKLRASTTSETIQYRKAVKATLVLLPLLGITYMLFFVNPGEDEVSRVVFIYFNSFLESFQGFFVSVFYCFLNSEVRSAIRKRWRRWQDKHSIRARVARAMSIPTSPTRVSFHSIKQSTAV
Description: Antagonistic activity against [125I]-Tyr-ovine CRF binding to Corticotropin releasing factor receptor 1.

Assay [3] deals with T1, Corticotropin-releasing factor receptor 2. Description: Antagonistic activity against [125I]-Tyr-ovine CRF binding to Corticotropin releasing factor receptor 2 beta (30% inhibition at 100 uM).
The nature of assay [4]: Binding affinity against Galanin receptor. On the set-up: species or system Homo sapiens.
The target in assay [5] is 5-hydroxytryptamine receptor 6 (Homo sapiens, UniProt P50406). Description: Binding affinity against 5-hydroxytryptamine 6 receptor.
Assay [6] has as its target 5-hydroxytryptamine receptor 7 (Homo sapiens, UniProt P34969). The assay can be described thus: Binding affinity against 5-hydroxytryptamine 7 receptor.
The target in assay [7] is T3, Neuropeptide Y receptor type 1 (Homo sapiens, UniProt P25929).
T3 sequence (P25929 whole entry): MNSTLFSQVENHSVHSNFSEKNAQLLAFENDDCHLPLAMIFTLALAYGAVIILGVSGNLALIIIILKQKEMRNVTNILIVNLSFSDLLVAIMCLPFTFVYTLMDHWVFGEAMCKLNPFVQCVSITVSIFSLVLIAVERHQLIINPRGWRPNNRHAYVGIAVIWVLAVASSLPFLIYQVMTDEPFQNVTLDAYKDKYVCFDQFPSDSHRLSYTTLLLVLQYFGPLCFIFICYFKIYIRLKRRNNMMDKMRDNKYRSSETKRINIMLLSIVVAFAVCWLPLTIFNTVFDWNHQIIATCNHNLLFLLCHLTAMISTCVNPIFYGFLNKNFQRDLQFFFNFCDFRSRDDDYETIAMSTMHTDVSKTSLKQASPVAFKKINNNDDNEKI
Description: Binding affinity against Neuropeptide Y receptor type 1 using [125I]PYY.

Assay [8] can be described thus: Binding affinity against Glucagon receptor using [125I]glucagon.
In assay [9] the target is D(2) dopamine receptor (Homo sapiens, UniProt P14416). Description: Binding affinity against dopamine D2 receptor.
A short description of assay [10]: Binding affinity to Glp1 receptor using [125I]Glp-1 as radioligand.

Here are results for 11 molecules from ChEMBL document CHEMBL1132065, “Synthesis and biological activity of oxo-7H-benzo[e]perimidine-4-carboxylic acid derivatives as potent, nonpeptide corticotropin releasing factor (CRF) receptor antagonists” (Bioorg Med Chem Lett, 1999).

Broadly, the Ki is a measure of affinity in units of concentration, obtained from inhibition or displacement.

A value given as a limit tells only on which side of the number the result lay.

T1 sequence (Q60748 whole entry): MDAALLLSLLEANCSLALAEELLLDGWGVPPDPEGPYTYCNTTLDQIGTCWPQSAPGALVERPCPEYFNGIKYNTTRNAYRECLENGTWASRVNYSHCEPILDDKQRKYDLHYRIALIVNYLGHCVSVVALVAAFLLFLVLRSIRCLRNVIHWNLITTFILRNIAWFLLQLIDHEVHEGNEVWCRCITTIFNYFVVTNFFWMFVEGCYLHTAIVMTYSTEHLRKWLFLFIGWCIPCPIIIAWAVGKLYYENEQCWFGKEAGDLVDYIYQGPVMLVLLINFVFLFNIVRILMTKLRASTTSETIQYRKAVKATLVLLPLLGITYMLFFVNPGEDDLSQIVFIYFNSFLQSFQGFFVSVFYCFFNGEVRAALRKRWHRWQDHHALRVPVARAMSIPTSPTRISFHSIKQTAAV
5-hydroxytryptamine receptor 6, sequence (P50406 whole entry): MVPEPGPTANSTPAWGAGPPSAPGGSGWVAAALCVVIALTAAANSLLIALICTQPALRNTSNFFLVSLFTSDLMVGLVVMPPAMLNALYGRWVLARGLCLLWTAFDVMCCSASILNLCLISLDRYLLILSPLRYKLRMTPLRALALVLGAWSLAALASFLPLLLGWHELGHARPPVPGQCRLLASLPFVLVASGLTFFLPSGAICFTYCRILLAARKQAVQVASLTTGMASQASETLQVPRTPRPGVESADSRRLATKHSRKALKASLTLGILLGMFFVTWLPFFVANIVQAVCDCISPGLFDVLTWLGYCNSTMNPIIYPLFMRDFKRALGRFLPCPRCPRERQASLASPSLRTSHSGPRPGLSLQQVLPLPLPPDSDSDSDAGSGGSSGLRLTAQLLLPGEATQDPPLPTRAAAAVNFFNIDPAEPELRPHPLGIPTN
D(2) dopamine receptor, sequence (P14416 whole entry): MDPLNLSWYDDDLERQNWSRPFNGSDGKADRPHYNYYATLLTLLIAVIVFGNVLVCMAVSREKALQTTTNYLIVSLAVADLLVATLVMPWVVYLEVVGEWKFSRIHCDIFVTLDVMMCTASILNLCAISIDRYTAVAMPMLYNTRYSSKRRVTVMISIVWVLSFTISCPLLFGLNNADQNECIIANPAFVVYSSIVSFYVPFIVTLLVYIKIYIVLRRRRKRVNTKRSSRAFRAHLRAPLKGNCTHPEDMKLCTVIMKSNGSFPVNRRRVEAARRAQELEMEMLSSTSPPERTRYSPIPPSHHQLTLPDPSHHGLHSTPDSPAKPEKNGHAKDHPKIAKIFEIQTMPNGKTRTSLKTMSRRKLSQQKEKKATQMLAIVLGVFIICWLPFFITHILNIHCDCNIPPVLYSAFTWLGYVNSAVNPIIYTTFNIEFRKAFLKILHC
5-hydroxytryptamine receptor 7, sequence (P34969 whole entry): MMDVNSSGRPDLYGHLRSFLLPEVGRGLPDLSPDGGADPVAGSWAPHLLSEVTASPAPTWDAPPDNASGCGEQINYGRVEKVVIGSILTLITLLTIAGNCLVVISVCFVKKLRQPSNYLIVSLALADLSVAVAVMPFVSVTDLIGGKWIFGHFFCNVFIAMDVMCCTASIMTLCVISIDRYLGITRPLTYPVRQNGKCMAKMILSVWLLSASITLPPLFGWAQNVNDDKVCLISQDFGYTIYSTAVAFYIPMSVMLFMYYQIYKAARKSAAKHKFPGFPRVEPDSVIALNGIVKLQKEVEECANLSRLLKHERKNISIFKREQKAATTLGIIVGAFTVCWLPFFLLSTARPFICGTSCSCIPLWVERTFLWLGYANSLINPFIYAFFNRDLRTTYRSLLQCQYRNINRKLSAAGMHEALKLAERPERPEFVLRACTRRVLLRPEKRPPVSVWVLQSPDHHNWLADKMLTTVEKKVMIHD

With `NCCNC(=O)c1c2c(c3c(O)c4ccccc4c4ncnc1c34)=N[C@@H]1CCCC[C@H]1N2`, the Ki came out at 45 nM in assay [1] and 160 nM in assay [2].

As to `NCCNC(=O)c1ccc2c3c(ncnc13)-c1ccccc1C2=O`, the Ki in assay [1] and in assay [2] was more than 10000 nM throughout.

`O=C(O)c1ccc2c3c(ncnc13)-c1ccccc1C2=O` gave a Ki in [3] of more than 100000 nM.

As to `N[C@@H]1CCCC[C@H]1NC(=O)c1c2c(c3c(O)c4ccccc4c4ncnc1c34)=N[C@H]1CCCC[C@@H]1N2`, the Ki in assay [1] was determined as 86 nM; in assay [2] it was 180 nM.

As for `N[C@@H]1CCCC[C@H]1NC(=O)c1ccc2c3c(ncnc13)-c1ccccc1C2=O`, the Ki in assay [1] and in assay [2] was more than 10000 nM in each case.

On to `NCCNC(=O)c1c2c(c3c(O)c4ccccc4c4ncnc1c34)=NCCN2`, for which the Ki in assay [1] amounted to 650 nM; in assay [2] it was 2050 nM.

As for `NCCNC(=O)c1c2c(c3c(O)c4ccccc4c4ncnc1c34)=N[C@H]1CCCC[C@H]1N2`, the values for the Ki in assay [1] and in assay [2] were 830 nM and 270 nM, respectively.

As for `N[C@H]1CCCC[C@H]1NC(=O)c1ccc2c3c(ncnc13)-c1ccccc1C2=O`, the Ki in assay [1] and in assay [2] was more than 10000 nM throughout.

In turn, `CN(C)C(=O)c1ccc2c3c(ncnc13)-c1ccccc1C2=O` gave a Ki in assay [1] of more than 10000 nM.

`N[C@H]1CCCC[C@@H]1NC(=O)c1c2c(c3c4c(ncnc14)-c1ccccc1C3=O)N[C@@H]1CCCC[C@H]1N2`: the Ki is more than 10000 nM in [4]; more than 10000 nM in [5]; 1600 nM in assay [6]; 4200 nM in [7]; more than 10000 nM in [8]; 20 nM in assay [1]. The Ki in assay [2] is 110 nM; in assay [9], 3200 nM; in assay [10], more than 10000 nM.

Turning to `NCCNC(=O)c1c2c(c3c4c(ncnc14)-c1ccccc1C3=O)N[C@H]1CCCC[C@@H]1N2`, the Ki is 75 nM in assay [1] and 200 nM in [2].
